From the supplement of paper PMC8671470

Experiments:
Conditions in all cases: 72 h
[1] = system: myeloid leukemia patient primary cells Pat.7; assay: cell viability (% survival relative to DMSO control); higher = less cytotoxic
In short: (§1)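 Seventy compounds were pre-printed on 384-well plates at five tenfold concentrations between 1 and 10,000 nM, in duplicate. Thawed mononuclear cells purified by Ficoll from AML or CML patients were added at 10,000 cells/well in RPMI 1640 with 10% FBS for 72 h. Viability by CellTiter-Glo was normalised to DMSO and 10 μM proteasome-inhibitor wells. Where stated, area under the curve was taken from log-logistic fits made with the drc and PharmacoGx R packages, each fit having four parameters.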

[2] = system: myeloid leukemia patient primary cells Pat.8; assay: as above
In short: as §1

[3] = system: myeloid leukemia patient primary cells Pat.3; assay: as above
In short: as §1

[4] = system: myeloid leukemia patient primary cells Pat.6; assay: as above
In short: as §1

[5] = system: myeloid leukemia patient primary cells Pat.11; assay: as above
In short: as §1

[6] = system: myeloid leukemia patient primary cells Pat.4; assay: as above
In short: as §1

[7] = system: myeloid leukemia patient primary cells Pat.14; assay: as above
In short: as §1

[8] = system: myeloid leukemia patient primary cells Pat.2; assay: as above
In short: as §1

[9] = system: myeloid leukemia patient primary cells Pat.12; assay: as above
In short: as §1

[10] = system: myeloid leukemia patient primary cells Pat.10; assay: as above
In short: as §1

[11] = system: myeloid leukemia patient primary cells Pat.15; assay: as above
In short: as §1

[12] = system: myeloid leukemia patient primary cells Pat.5; assay: as above
In short: as §1

[13] = system: myeloid leukemia patient primary cells Pat.9; assay: as above
In short: as §1

[14] = system: myeloid leukemia patient primary cells Pat.1; assay: as above
In short: as §1

[15] = system: myeloid leukemia patient primary cells Pat.13; assay: as above
In short: as §1

K-562 = system: K-562
In short: (§2)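 The IC50 was read from log-logistic dose–response fits. Fifteen myeloid leukaemia lines were exposed for 72 h at 37 °C with 5% CO2 to five tenfold doses from 1 to 10,000 nM in duplicate. ATP luminescence, normalised to vehicle and to a 10 µM positive control, was fitted with four parameters.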

Mono-Mac-6 = system: Mono-Mac-6
In short: as §2

LAMA-84 = system: LAMA-84
In short: as §2

HEL = system: HEL
In short: as §2

KG-1 = system: KG-1
In short: as §2

SHI-1 = system: SHI-1
In short: as §2

KCL-22 = system: KCL-22
In short: as §2

NOMO-1 = system: NOMO-1
In short: as §2

MOLM-13 = system: MOLM-13
In short: as §2

BV-173 = system: BV-173
In short: as §2

HL-60 = system: HL-60
In short: as §2

KU-812 = system: KU-812
In short: as §2

ML-2 = system: ML-2
In short: as §2

THP-1 = system: THP-1
In short: as §2

[16] = system: myeloid leukemia patient primary cells Pat.4; assay: area under dose-response curve (viability, 1 nM-10 uM) (fraction (0-1)); higher = more sensitive
In short: as §1

O=C1O/C(=C/Br)CCC1c1cccc2ccccc12 (stereo not given) [Bromoenol Lactone]
cell viability [%]
Conditions | 1 nM | 10 nM | 100 nM | 1000 nM | 10000 nM
[1] | 57.6 | 75.8 | 76.4 | 30 | < 0
[2] | 75.9 | 91.1 | 70 | 81.3 | 30
[3] | 89.5 | 82.1 | 62.3 | 1.83 | < 0
[4] | 91.1 | 89.2 | > 100 | 86 | 33.1
[5] | > 100 | 94.6 | 99.2 | 87.7 | 57.2
[6] | 64.7 | 93.3 | 85.8 | 53.4 | 3.26
[7] | 78.2 | 83.5 | 73.9 | 21.8 | < 0
[8] | 96.5 | > 100 | 97.2 | 93.6 | 29.4
[9] | 100 | > 100 | 92.4 | 90.9 | 33.9
[10] | 63.6 | 47.6 | 46.5 | 10.6 | < 0
[11] | 89.3 | 91.6 | 96.4 | 89 | 3.92
[12] | 44.7 | 34.4 | 7.92 | 1.18 | 2.24
[13] | 66 | 39.3 | 46.4 | 5.6 | 0.492
[14] | 68.2 | 90.4 | 79.3 | 69.3 | 14.6
[15] | 80.2 | 89.3 | 89.3 | 82.2 | 28.1

Conditions | IC50 (cell viability) [µM] | area under dose-response curve
BV-173 | 4.15 | –
HEL | 8.39 | –
HL-60 | > 10 | –
K-562 | 9.03 | –
KCL-22 | 7.07 | –
KG-1 | 8.59 | –
KU-812 | 5.18 | –
LAMA-84 | > 10 | –
ML-2 | > 10 | –
MOLM-13 | 5.36 | –
Mono-Mac-6 | > 10 | –
NOMO-1 | 3.55 | –
SHI-1 | > 10 | –
THP-1 | 4.53 | –
[16] | – | 0.213

CC[C@@]1(O)C(=O)OCc2c1cc1n(c2=O)Cc2cc3c(CN(C)C)c(O)ccc3nc2-1 [Topotecan]
cell viability [%]
Conditions | 1 nM | 10 nM | 100 nM | 1000 nM | 10000 nM
[1] | 80.1 | 94.3 | 81.4 | 34.7 | < 0
[2] | 76.3 | 69.7 | 93.5 | 87.2 | 27.3
[3] | 90.9 | 89.8 | 20 | 18.6 | 2.85
[4] | > 100 | 97.4 | 94.6 | 75.1 | 32.5
[5] | 99.8 | 97.2 | 92.4 | 76.2 | 53.3
[6] | 75.3 | 84.2 | > 100 | 82.5 | 4.14
[7] | 96 | 97 | 72.4 | 58.2 | 6.19
[8] | 90.7 | 92.9 | 95.9 | 72 | 39.5
[9] | 95.3 | 97 | 92.1 | 93.5 | 48.3
[10] | 84.6 | 88.3 | 35.4 | 6.65 | 1.3
[11] | 95.4 | 89.4 | 83.5 | 54.8 | 0.856
[12] | 91.7 | 66.1 | 53.1 | 19.8 | 0.265
[13] | 78.4 | 58.3 | 31.8 | 58.8 | 1.24
[14] | 83.6 | 80.9 | 98.6 | 96 | 28.6
[15] | 85.7 | 91.7 | 92.3 | 97.4 | 21.9

Conditions | IC50 (cell viability) [µM] | area under dose-response curve
BV-173 | 0.0114 | –
HEL | 0.0333 | –
HL-60 | 0.0225 | –
K-562 | 0.097 | –
KCL-22 | 0.0594 | –
KG-1 | 0.0427 | –
KU-812 | 0.0407 | –
LAMA-84 | 0.0654 | –
ML-2 | 0.0245 | –
MOLM-13 | 0.018 | –
Mono-Mac-6 | 0.0344 | –
NOMO-1 | 0.0405 | –
SHI-1 | 0.024 | –
THP-1 | 0.289 | –
[16] | – | 0.132

O=C(O)C1=CC(=C(c2ccc(O)c(C(=O)O)c2)c2ccc(O)c(C(=O)O)c2)C=CC1=O [Aurintricarboxylic acid]
cell viability [%]
Conditions | 1 nM | 10 nM | 100 nM | 1000 nM | 10000 nM
[1] | 87.2 | 94.1 | > 100 | > 100 | 70.9
[2] | 92.5 | 87.6 | 79.7 | 94.2 | 79.4
[3] | > 100 | > 100 | 99.7 | 91.7 | > 100
[4] | 99.8 | 97.5 | > 100 | > 100 | 97.7
[5] | > 100 | 95.8 | > 100 | > 100 | > 100
[6] | 99.3 | 81.2 | 83.3 | > 100 | 91
[7] | 92.5 | > 100 | 98.6 | > 100 | 92.1
[8] | 98 | 99.7 | 97.8 | > 100 | 98.8
[9] | 96.5 | 97.4 | 99.8 | > 100 | 99.6
[10] | 98.4 | 90.3 | 91.9 | > 100 | > 100
[11] | 96.4 | > 100 | 89.3 | 86.6 | 87.3
[12] | > 100 | 88.3 | 91.7 | > 100 | > 100
[13] | > 100 | 99 | 88 | > 100 | 53.2
[14] | 92.9 | 94.4 | 96.2 | > 100 | > 100
[15] | 89.1 | 91.4 | 94.1 | > 100 | 93.4

Conditions | IC50 (cell viability) [µM] | area under dose-response curve
BV-173 | 2.72 | –
HEL | 3.3 | –
HL-60 | > 10 | –
K-562 | > 10 | –
KCL-22 | > 10 | –
KG-1 | > 10 | –
KU-812 | > 10 | –
LAMA-84 | > 10 | –
ML-2 | > 10 | –
MOLM-13 | 2.64 | –
Mono-Mac-6 | > 10 | –
NOMO-1 | > 10 | –
SHI-1 | > 10 | –
THP-1 | > 10 | –
[16] | – | < 0.0301

O=C(O)Cn1nnc(-c2cc(N3CCC(Oc4cc(F)ccc4Br)CC3)no2)n1 [MK-8245]
cell viability [%]
Conditions | 1 nM | 10 nM | 100 nM | 1000 nM | 10000 nM
[1] | 97.4 | 93.6 | 82.9 | > 100 | 56.7
[2] | > 100 | 89.4 | 94.8 | 91.6 | > 100
[3] | > 100 | 98.2 | 78.1 | 62 | 57
[4] | 97.8 | 97.2 | 97.3 | > 100 | 97
[5] | > 100 | 96.4 | > 100 | > 100 | 97
[6] | 97.3 | 96.4 | 81 | 97.3 | > 100
[7] | 95.5 | 90.3 | 99.3 | 90.2 | 89.8
[8] | > 100 | 97 | > 100 | > 100 | 96.3
[9] | > 100 | 88.3 | > 100 | 95.7 | 93.6
[10] | 56.6 | 80.7 | > 100 | 54.5 | 4.72
[11] | 95.9 | 91.5 | 93.5 | > 100 | 95.2
[12] | > 100 | 93.9 | 90.6 | 94.3 | 70
[13] | 82.3 | 69.4 | 79.2 | 85.3 | 71.9
[14] | 96.4 | 77.4 | 98 | 97.5 | 98.5
[15] | 87.2 | 88.5 | 99.8 | 95.8 | 95.5

Conditions | IC50 (cell viability) [µM] | area under dose-response curve
BV-173 | > 10 | –
HEL | > 10 | –
HL-60 | > 10 | –
K-562 | 6.81 | –
KCL-22 | > 10 | –
KG-1 | > 10 | –
KU-812 | > 10 | –
LAMA-84 | > 10 | –
ML-2 | > 10 | –
MOLM-13 | 0.643 | –
Mono-Mac-6 | > 10 | –
NOMO-1 | > 10 | –
SHI-1 | > 10 | –
THP-1 | > 10 | –
[16] | – | < 0.0301

Cc1c(-c2ccc(-c3ccccc3F)cc2)nc2ccc(F)cc2c1C(=O)O [Brequinar]
cell viability [%]
Conditions | 1 nM | 10 nM | 100 nM | 1000 nM | 10000 nM
[1] | 81.2 | 87.1 | 62 | 60.6 | 55.3
[2] | 91.5 | 82 | 78 | 97.6 | 88.4
[3] | > 100 | 58 | 30 | 33.1 | 20.7
[4] | > 100 | > 100 | 93.9 | 97.8 | 96.8
[5] | 97.9 | > 100 | > 100 | > 100 | 97.7
[6] | 0.431 | 90.6 | 94.7 | 87.5 | 86.4
[7] | 89.4 | 81.1 | 73.4 | 65.6 | 32.3
[8] | > 100 | 92.7 | 97.1 | 95.2 | 99.9
[9] | 22 | 99 | 93.2 | 98.4 | 95
[10] | 58.9 | 81.4 | 56.6 | 77.9 | 57.7
[11] | 91.1 | 85.4 | 87.7 | 98.9 | 87.7
[12] | 66.1 | 60.8 | 47.9 | 33.1 | 6.89
[13] | 88.1 | 59.6 | 36.9 | 50 | 10.6
[14] | 93.1 | 89.3 | 97.5 | 92.2 | 88.6
[15] | > 100 | 93.4 | 96.6 | 94.2 | 84.6

Conditions | IC50 (cell viability) [µM] | area under dose-response curve
BV-173 | 7.19 | –
HEL | 1.48 | –
HL-60 | 6.09 | –
K-562 | 8.59 | –
KCL-22 | 0.94 | –
KG-1 | > 10 | –
KU-812 | > 10 | –
LAMA-84 | 9.69 | –
ML-2 | 8.46 | –
MOLM-13 | 4.34 | –
Mono-Mac-6 | > 10 | –
NOMO-1 | > 10 | –
SHI-1 | > 10 | –
THP-1 | > 10 | –
[16] | – | < 0.0301
